Tested on: J306 target with alternative PAM sequences
Test: CRISPRa at alternative PAM sites of the J3-J23117-mRFP1 reporter
Assay type: cell-based, E. coli
From the text: FIGS. 31A and 31B illustrate that dxCas9(3.7) expands the range of targetable scRNA target sites by recognizing alternative PAMs. […] Reporter plasmids were constructed by replacing the AGG PAM site for the J306 target in the J3-J23117-mRFP1 reporter with alternative PAM sequences that have been previously reported to be recognized by dxCas9(3.7) in human cells (Hu, J. H. et al. Evolved Cas9 variants with broad PAM compatibility and high DNA specificity. Nature 556, 57-63 (2018), incorporated herein by reference in its entirety). The (−) sign indicates a control expressing the original reporter with the AGG PAM and the CRISPRa components with Sp-dCas9, the activation domain and no scRNA.
Considering there is a limited number of genes with an appropriate NGG PAM site at precisely the optimal position upstream of the promoter, it was attempted to expand the scope of targetable PAM sites for CRISPRa. A recently characterized dCas9 variant, dxCas9(3.7), that has improved activity at a variety of non-NGG PAM sites including NGN, GAA, GAT, and CAA6 was used. […] PAM sites than NGG PAM sites (not shown), Accounting for the fact that dCas9 has some activity at non-NGG sites6 (FIG. 31), there are still on average ˜2.2-fold more dxCas9(3.7)-compatible PAM sites than dCas9-compatible PAM sites (not shown). […]

Substance: Sp-dCas9: S. pyogenes dCas9
- CRISPRa activity (in words) (non-NGG PAM sites AGA, CGA, GGA, GGC, GGT, TGA): moderate CRISPRa activity
- activation of AGT PAM site shifted into the peak activation range (in words) (reporter with five bases inserted): ineffective
